Reference: publication PMC9067983, “Identification of highly selective type II kinase inhibitors with chiral peptidomimetic tails” (Journal of Enzyme Inhibition and Medicinal Chemistry, 2022)
Where a SMILES comes first, the peptide text is derived from it. [ ]: non-standard residue; d: D form. The star is where a group is joined. X1 = Cc1ccc(Nc2ncc3c(n2)N(C)C(=O)N(c2cc(C(=O)*)ccc2C)C3)cn1; Ac4c = NC1(C(=O)O)CCC1; Ac3c = NC1(C(=O)O)CC1; Aib = CC(C)(N)C(=O)O

Experiments:
Lck = target: T1, Lck (Homo sapiens, UniProt P06239); test: In vitro kinase assay (IC50); assay type: biochemical
T1 construct: purchased Reaction Biology Corp
T1 sequence (P06239 whole entry): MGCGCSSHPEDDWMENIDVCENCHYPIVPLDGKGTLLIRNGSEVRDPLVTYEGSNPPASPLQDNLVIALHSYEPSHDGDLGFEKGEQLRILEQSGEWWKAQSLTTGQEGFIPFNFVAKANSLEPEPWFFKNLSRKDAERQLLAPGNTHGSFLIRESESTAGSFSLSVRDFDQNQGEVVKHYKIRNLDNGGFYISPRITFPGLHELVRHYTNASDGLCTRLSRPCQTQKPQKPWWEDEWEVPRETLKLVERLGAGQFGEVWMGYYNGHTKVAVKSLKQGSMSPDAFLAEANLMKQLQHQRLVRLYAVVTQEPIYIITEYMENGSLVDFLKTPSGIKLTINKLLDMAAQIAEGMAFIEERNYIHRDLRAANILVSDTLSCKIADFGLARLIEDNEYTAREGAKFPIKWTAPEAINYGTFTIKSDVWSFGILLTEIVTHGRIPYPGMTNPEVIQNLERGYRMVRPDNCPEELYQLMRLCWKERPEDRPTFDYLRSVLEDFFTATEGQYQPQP
Protocol: (§1) Full panel kinase profiling and kinase IC50 measurement were performed by using Reaction Biology Corp. (San Diego, USA).

c-Src = target: T2, c-Src (Homo sapiens, UniProt P12931); test: In vitro kinase assay (IC50); assay type: biochemical
T2 construct: purchased Reaction Biology Corp
T2 sequence (P12931 whole entry): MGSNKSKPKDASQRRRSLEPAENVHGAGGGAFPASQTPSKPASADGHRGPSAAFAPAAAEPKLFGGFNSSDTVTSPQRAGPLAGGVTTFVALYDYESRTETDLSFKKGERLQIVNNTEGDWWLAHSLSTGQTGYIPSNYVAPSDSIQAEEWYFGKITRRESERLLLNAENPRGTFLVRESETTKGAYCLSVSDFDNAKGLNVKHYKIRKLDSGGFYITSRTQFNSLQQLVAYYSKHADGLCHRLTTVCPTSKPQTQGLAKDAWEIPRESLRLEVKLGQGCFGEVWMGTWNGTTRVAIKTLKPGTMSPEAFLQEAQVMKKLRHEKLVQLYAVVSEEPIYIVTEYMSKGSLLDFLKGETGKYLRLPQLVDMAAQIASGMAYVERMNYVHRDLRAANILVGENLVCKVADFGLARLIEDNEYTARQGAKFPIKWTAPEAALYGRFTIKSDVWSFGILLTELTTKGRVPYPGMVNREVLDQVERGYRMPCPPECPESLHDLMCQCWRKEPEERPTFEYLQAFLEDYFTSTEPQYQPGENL
Protocol: as §1

| Structure (SMILES) | IC50 (Lck) | IC50 (c-Src) | selectivity for Lck over c-Src (Lck) |
| --- | --- | --- | --- |
| Cc1ccc(Nc2ncc3c(n2)N(C)C(=O)N(c2cc(C(=O)N[C@@H](Cc4ccccc4)C(=O)N4CCC[C@H]4C(=O)NC(C)(C)C(=O)N[C@H](C(=O)N(C)C)C(C)C)ccc2C)C3)cn1 [7l, (S)-N-(1-(((S)-1-(dimethylamino)-3-methyl-1-oxobutan-2-yl)amino)-2-methyl-1-oxopropan-2-yl)-1-((4-methyl-3-(1-methyl-7-((6-methylpyridin-3-yl)amino)-2-oxo-1,4-dihydropyrimido[4,5-d]pyrimidin-3(2H)-yl)benzoyl)-L-phenylalanyl)pyrrolidine-2-carboxamide] (X1-FP[Aib]V-NMe2) | 155 nM | 1740 nM |  |
| C=CCCC1=N[C@@H](CC(=O)Nc2ccc(C)c(N3Cc4cnc(Nc5ccc(C)nc5)nc4N(C)C3=O)c2)C(=O)N(C)c2ccccc21 [11p, (S)-2-(5-(but-3-en-1-yl)-1-methyl-2-oxo-2,3-dihydro-1H-benzo[e][1,4]diazepin-3-yl)-N-(4-methyl-3-(1-methyl-7-((6-methylpyridin-3-yl)amino)-2-oxo-1,4-dihydropyrimido[4,5-d]pyrimidin-3(2H)-yl)phenyl)acetamide] | 3.8 nM | 6.14 nM |  |
| CC[C@H](C)[C@H](NC(=O)c1ccc(C)c(N2Cc3cnc(Nc4ccc(C)nc4)nc3N(C)C2=O)c1)C(=O)N1CCC[C@H]1C(=O)NC(C)(C)C(=O)N[C@@H](CC(C)C)C(=O)N(C)C [7p, (S)-N-(1-(((S)-1-(dimethylamino)-4-methyl-1-oxopentan-2-yl)amino)-2-methyl-1-oxopropan-2-yl)-1-((4-methyl-3-(1-methyl-7-((6-methylpyridin-3-yl)amino)-2-oxo-1,4-dihydropyrimido[4,5-d]pyrimidin-3(2H)-yl)benzoyl)-L-isoleucyl)pyrrolidine-2-carboxamide] (X1-IP[Aib]L-NMe2) | 55.6 nM | 329 nM |  |
| COCCN1C(=O)[C@H](CC(C)C)N=C(c2ccccc2)c2ccc(C(=O)Nc3ccc(C)c(N4Cc5cnc(Nc6ccc(C)nc6)nc5N(C)C4=O)c3)cc21 [11n, (S)-3-isobutyl-1-(2-methoxyethyl)-N-(4-methyl-3-(1-methyl-7-((6-methylpyridin-3-yl)amino)-2-oxo-1,4-dihydropyrimido[4,5-d]pyrimidin-3(2H)-yl)phenyl)-2-oxo-5-phenyl-2,3-dihydro-1H-benzo[e][1,4]diazepine-8-carboxamide] | 16 nM | 48.6 nM |  |
| C=CCN1C(=O)[C@H](CC(C)C)N=C(c2ccccc2)c2ccc(C(=O)Nc3ccc(C)c(N4Cc5cnc(Nc6ccc(C)nc6)nc5N(C)C4=O)c3)cc21 [11i, (S)-1-allyl-3-isobutyl-N-(4-methyl-3-(1-methyl-7-((6-methylpyridin-3-yl)amino)-2-oxo-1,4-dihydropyrimido[4,5-d]pyrimidin-3(2H)-yl)phenyl)-2-oxo-5-phenyl-2,3-dihydro-1H-benzo[e][1,4]diazepine-8-carboxamide] | 49.3 nM | 222 nM |  |
| Cc1ccc(Nc2ncc3c(n2)N(C)C(=O)N(c2cc(NC(=O)c4ccc5c(c4)NC(=O)[C@H](Cc4ccc(F)cc4)N=C5c4ccccc4)ccc2C)C3)cn1 [11g, (S)-3-(4-fluorobenzyl)-N-(4-methyl-3-(1-methyl-7-((6-methylpyridin-3-yl)amino)-2-oxo-1,4-dihydropyrimido[4,5-d]pyrimidin-3(2H)-yl)phenyl)-2-oxo-5-phenyl-2,3-dihydro-1H-benzo[e][1,4]diazepine-8-carboxamide] | 42.1 nM | 134 nM |  |
| Cc1ccc(Nc2ncc3c(n2)N(C)C(=O)N(c2cc(C(=O)N[C@@H](CC(C)C)C(=O)N4CCC[C@H]4C(=O)NC(C)(C)C(=O)N[C@@H](CC(C)C)C(=O)N(C)C)ccc2C)C3)cn1 [7q, (S)-N-(1-(((S)-1-(dimethylamino)-4-methyl-1-oxopentan-2-yl)amino)-2-methyl-1-oxopropan-2-yl)-1-((4-methyl-3-(1-methyl-7-((6-methylpyridin-3-yl)amino)-2-oxo-1,4-dihydropyrimido[4,5-d]pyrimidin-3(2H)-yl)benzoyl)-L-leucyl)pyrrolidine-2-carboxamide] (X1-LP[Aib]L-NMe2) | 15.4 nM | 174 nM | > 10 fold |
| Cc1ccc(Nc2ncc3c(n2)N(C)C(=O)N(c2cc(C(=O)N[C@H](C(=O)N4CCC[C@H]4C(=O)N[C@@H](Cc4ccccc4)C(=O)N[C@@H](CC(C)C)C(=O)N(C)C)C(C)C)ccc2C)C3)cn1 [7i, (S)-N-((S)-1-(((S)-1-(dimethylamino)-4-methyl-1-oxopentan-2-yl)amino)-1-oxo-3-phenylpropan-2-yl)-1-((4-methyl-3-(1-methyl-7-((6-methylpyridin-3-yl)amino)-2-oxo-1,4-dihydropyrimido[4,5-d]pyrimidin-3(2H)-yl)benzoyl)-L-valyl)pyrrolidine-2-carboxamide] (X1-VPFL-NMe2) | 61.5 nM | 123 nM |  |
| C=CCCC1=N[C@@H](CC(=O)Nc2ccc(C)c(N3Cc4cnc(Nc5ccc(C)nc5)nc4N(C)C3=O)c2)C(=O)N(Cc2ccccc2)c2ccccc21 [11q, (S)-2-(1-benzyl-5-(but-3-en-1-yl)-2-oxo-2,3-dihydro-1H-benzo[e][1,4]diazepin-3-yl)-N-(4-methyl-3-(1-methyl-7-((6-methylpyridin-3-yl)amino)-2-oxo-1,4-dihydropyrimido[4,5-d]pyrimidin-3(2H)-yl)phenyl)acetamide] | 17.9 nM | 24.8 nM |  |
| Cc1ccc(Nc2ncc3c(n2)N(C)C(=O)N(c2cc(C(=O)N[C@H](C(=O)N4CCC[C@H]4C(=O)NC4(C(=O)N[C@@H](CC(C)C)C(=O)N(C)C)CCC4)C(C)C)ccc2C)C3)cn1 [7f, (S)-N-(1-(((S)-1-(dimethylamino)-4-methyl-1-oxopentan-2-yl)carbamoyl)cyclobutyl)-1-((4-methyl-3-(1-methyl-7-((6-methylpyridin-3-yl)amino)-2-oxo-1,4-dihydropyrimido[4,5-d]pyrimidin-3(2H)-yl)benzoyl)-L-valyl)pyrrolidine-2-carboxamide] (X1-VP[Ac4c]L-NMe2) | 27.5 nM | 658 nM |  |
| CC1=N[C@@H](CC(C)C)C(=O)N(C)c2cc(C(=O)Nc3ccc(C)c(N4Cc5cnc(Nc6ccc(C)nc6)nc5N(C)C4=O)c3)ccc21 [11m, (S)-3-isobutyl-1,5-dimethyl-N-(4-methyl-3-(1-methyl-7-((6-methylpyridin-3-yl)amino)-2-oxo-1,4-dihydropyrimido[4,5-d]pyrimidin-3(2H)-yl)phenyl)-2-oxo-2,3-dihydro-1H-benzo[e][1,4]diazepine-8-carboxamide] | 1.05 nM | 4.01 nM |  |
| Cc1ccc(Nc2ncc3c(n2)N(C)C(=O)N(c2cc(C(=O)N[C@H](C(=O)N4CCC[C@@H]4C(=O)NC(C)(C)C(=O)N[C@H](C(=O)N(C)C)C(C)C)C(C)C)ccc2C)C3)cn1 [7o, (R)-N-(1-(((S)-1-(dimethylamino)-3-methyl-1-oxobutan-2-yl)amino)-2-methyl-1-oxopropan-2-yl)-1-((4-methyl-3-(1-methyl-7-((6-methylpyridin-3-yl)amino)-2-oxo-1,4-dihydropyrimido[4,5-d]pyrimidin-3(2H)-yl)benzoyl)-L-valyl)pyrrolidine-2-carboxamide] (X1-V[dP][Aib]V-NMe2) | 1040 nM | > 10000 nM |  |
| Cc1ccc(Nc2ncc3c(n2)N(C)C(=O)N(c2cc(C(=O)NCC(=O)N4CCC[C@H]4C(=O)NC(C)(C)C(=O)N[C@@H](CC(C)C)C(=O)N(C)C)ccc2C)C3)cn1 [7r, (S)-N-(1-(((S)-1-(dimethylamino)-4-methyl-1-oxopentan-2-yl)amino)-2-methyl-1-oxopropan-2-yl)-1-((4-methyl-3-(1-methyl-7-((6-methylpyridin-3-yl)amino)-2-oxo-1,4-dihydropyrimido[4,5-d]pyrimidin-3(2H)-yl)benzoyl)glycyl)pyrrolidine-2-carboxamide] (X1-GP[Aib]L-NMe2) | 216 nM | 577 nM |  |
| Cc1ccc(Nc2ncc3c(n2)N(C)C(=O)N(c2cc(NC(=O)c4ccc5c(c4)NC(=O)[C@@H](Cc4ccccc4)N=C5c4ccccc4)ccc2C)C3)cn1 [11f, (R)-3-benzyl-N-(4-methyl-3-(1-methyl-7-((6-methylpyridin-3-yl)amino)-2-oxo-1,4-dihydropyrimido[4,5-d]pyrimidin-3(2H)-yl)phenyl)-2-oxo-5-phenyl-2,3-dihydro-1H-benzo[e][1,4]diazepine-8-carboxamide] | 18.7 nM | 62.6 nM |  |
| Cc1ccc(Nc2ncc3c(n2)N(C)C(=O)N(c2cc(C(=O)N[C@H](C(=O)N4CCC[C@@H]4C(=O)NC4(C(=O)N[C@@H](CC(C)C)C(=O)N(C)C)CC4)C(C)C)ccc2C)C3)cn1 [7e, (R)-N-(1-(((S)-1-(dimethylamino)-4-methyl-1-oxopentan-2-yl)carbamoyl)cyclopropyl)-1-((4-methyl-3-(1-methyl-7-((6-methylpyridin-3-yl)amino)-2-oxo-1,4-dihydropyrimido[4,5-d]pyrimidin-3(2H)-yl)benzoyl)-L-valyl)pyrrolidine-2-carboxamide] (X1-V[dP][Ac3c]L-NMe2) | 129 nM | 2080 nM |  |
| Cc1ccc(Nc2ncc3c(n2)N(C)C(=O)N(c2cc(C(=O)N[C@H](C(=O)N4CCC[C@@H]4C(=O)N[C@H](C(=O)N[C@H](C)c4ccccc4)C(C)C)C(C)C)ccc2C)C3)cn1 [7v, (R)-N-((S)-3-methyl-1-oxo-1-(((R)-1-phenylethyl)amino)butan-2-yl)-1-((4-methyl-3-(1-methyl-7-((6-methylpyridin-3-yl)amino)-2-oxo-1,4-dihydropyrimido[4,5-d]pyrimidin-3(2H)-yl)benzoyl)-L-valyl)pyrrolidine-2-carboxamide] | 403 nM | 5630 nM |  |
| Cc1ccc(Nc2ncc3c(n2)N(C)C(=O)N(c2cc(NC(=O)c4ccc5c(c4)N(C)C(=O)[C@H](CC(C)C)N=C5c4ccccc4)ccc2C)C3)cn1 [11h, (S)-3-isobutyl-1-methyl-N-(4-methyl-3-(1-methyl-7-((6-methylpyridin-3-yl)amino)-2-oxo-1,4-dihydropyrimido[4,5-d]pyrimidin-3(2H)-yl)phenyl)-2-oxo-5-phenyl-2,3-dihydro-1H-benzo[e][1,4]diazepine-8-carboxamide] | 24.6 nM | 135 nM |  |
